The source of these data is US8968702B2, “Inhibition of HIF-1 activation for anti-tumor and anti-inflammatory responses” (Duke University, priority 2006, dated 2015).

Read-outs that look alike come from different tables or passages of the source. Where a SMILES comes first, the peptide text is derived from it. The star is where a group is joined. Cbz = O=C(OCc1ccccc1)*

In assay [1] the test system is HIF-1α. Format: cell-based, murine.
Assay [2] has as its system constitutively expressed luciferase. In words: CMV-luc control reporter in irradiated 4T1 tumors in nude mice. Conditions: 4T1-luc tumors, 6 Gy, with or without L-NAME. It counts as in vivo. The source says: Plasmids and cloning procedures. The HIF-1α bioluminescence reporter (ODD-luc) construct was created by fusing PCR product of ODD domain of HIF-1α (GENBANK® Accession No. U59496) to the 5′ end of firefly luciferase reporter gene. Along with this construct, a luciferase expression vector in which luciferase gene was driven by the CMV promoter was used as a control. […] ODD fragments with or without the mutation were cloned into pCMV-3Tag-4B Epitope Tagging Mammalian Expression vector (Stratagene, La Jolla, Calif., United States of America). The full length mouse VHL gene (GENBANK® Accession No. S76748) was cloned form mouse tissue and tagged with HA tag by PCR. All constructs were sequence-verified.
Imaging luciferase activity.
(§1) Animal experiments. […] Drinking water was renewed daily until animal sacrifice.

The subject of assay [3] is 4T1 (murine mammary adenocarcinoma). Description: Tumor growth delay with radiotherapy, 4T1 tumors. Format: in vivo. Conditions: syngeneic mice, 3 fractions of 6 Gy every other day, L-NAME in drinking water.
Text: as §1
(§2) Statistics. Student's t test, one-way and two-way ANOVA were used where indicated. In growth delay experiments, the numbers of days for tumors to reach 5× their initial volume were used for comparing different treatment groups.

Another assay relates to B16F10 (murine melanoma). Description: Tumor growth delay with radiotherapy, B16F10 tumors. Format: in vivo. Conditions: syngeneic C57BL/6 mice, 3 fractions of 6 Gy every other day, L-NAME in drinking water.
Text: as §1, §2

A further assay has as its system tumor vasculature. Description: CD31 vessel staining / vascular density in tumors. It counts as in vivo, mice. Conditions: 4T1 and B16F10 tumors excised on day 10. As for the experimental part: Vessel staining was performed on tumor cryoslices by using the VECTASTAIN® ABC and the NOVARED™ kits from Vector Laboratories (Burlingame, Calif., United States of America), according to the manufacturer's protocol. The primary anti-CD31 antibody (Santa Cruz Biotechnology, Santa Cruz, Calif.) was labeled with a secondary biotinylated anti-rabbit antibody (Jackson ImmunoResearch Labs, Inc.). Slices were counterstained using Harris' hematoxilin. Vascular density was determined by counting CD31-positive structures in 5 random fields per tumor.

The subject of assay [4] is HIF-1α. Description: Radiation-induced ODD-luc in 4T1 tumors in macrophage-depleted nude mice. The note with it: 4T1-ODD-luc tumors, carrageenan 2 mg i.p. repeated, 6 Gy. It counts as in vivo.
Method: Imaging luciferase activity. Luciferase expression/activity was detected and quantified as relative light units (RLUs) by using the Xenogen IVIS™ imaging system and associated LIVING IMAGE® software (Xenogen, Alameda, Calif., United States of America). […] For in vivo experiments, treated tumor-bearing mice received an i.p. injection of luciferin (150 mg/kg) during isofluorane anesthesia. Repeated images of luciferase expression/activity were acquired following manufacturer's specified procedures.
Animal experiments. Female NIH Swiss nude mice, C57BL/6 mice were purchased from the National Cancer Institute (NCI; Fredrick, Md., United States of America). Mice with a genetic disruption of the inducible nitric acid synthase gene (C57BL/6 iNOS^−/−) were obtained from the Jackson Laboratory (Bar Harbor, Me., United States of America). Female BALB/c mice were obtained from Charles River Laboratories (Raleigh, N.C., United States of America). Animals were maintained and cared for in accordance with the Duke University Institutional Animal Care and Use Committee guidelines. For tumor implantation, 4T1 tumors were grown in nude mice or in syngeneic BALB/c mice, and B16F10 melanoma in syngeneic C57BL/6 or iNOS^−/− mice. […]

Consider `[Cl-].[Cl-].[Co+2]` [CoCl2], for which the “luminescence from ODD-luc reporter gene expression” value in the assay on HIF-1α [1] is “rose significantly”.
On to `COC(=O)[C@@H](N)CCCNC(=N)N[N+](=O)[O-]` [L-NAME, Nω-nitro-L-arginine methyl ester], for which the “activity of constitutively expressed luciferase (CMV-luc control)” value in assay [2] is listed as “did not influence the activity of constitutively expressed luciferase activity”. For the same molecule, the “tumor growth delay, L-NAME with radiotherapy” value (in assay [3]; in the assay with B16F10 (murine melanoma)) was “significantly enhanced the therapeutic efficacy of radiotherapy” throughout. Besides, the “tumor vasculature (CD31+ vascular density), L-NAME with radiotherapy” value with tumor vasculature was “significantly reduced tumor vasculature”.
For the molecule carrageenan, the “radiation-induced ODD-luc activation after macrophage depletion” value in the assay on HIF-1α [4] is “significant reduction in radiation-induced ODD-luc activation”.
As to `CC1(C)N([O])C(c2ccc(C(=O)[O-])cc2)=[N+]([O-])C1(C)C.[K+]` [carboxy-PTIO, potassium 2-(4-carboxyphenyl)-4,4,5,5-tetramethylimidazoline-1-oxyl-3-oxide], the “suppression of GSNO-induced HIF-1α activation (ODD-luc)” value with HIF-1α [1] is “effectively suppressed HIF-1α activation by GSNO”.
As to `CC(C)C[C@@H](C=O)NC(=O)[C@H](CC(C)C)NC(=O)[C@H](CC(C)C)NC(=O)OCc1ccccc1` [MG132] (Cbz-Leu-Leu-Leu-aldehyde), the “luminescence from ODD-luc reporter gene expression” value in the assay with HIF-1α [1] (CoCl2 240 μM for 12 hrs, MG132 10 μM for 12 hrs, versus background) was “rose significantly”.
